# Measured values from BindingDB's records for doi:10.1016/j.bmc.2019.01.035 (Florida A&M University, 2019).
# Molecular target: Sigma non-opioid intracellular receptor 1 (Homo sapiens, UniProt Q99720)
# Assay: Displacement [3H]-Pentazocine from sigma 1 receptor (unknown origin) expressed in HEK cell membranes
# Sequence of Sigma non-opioid intracellular receptor 1 (Q99720 whole entry): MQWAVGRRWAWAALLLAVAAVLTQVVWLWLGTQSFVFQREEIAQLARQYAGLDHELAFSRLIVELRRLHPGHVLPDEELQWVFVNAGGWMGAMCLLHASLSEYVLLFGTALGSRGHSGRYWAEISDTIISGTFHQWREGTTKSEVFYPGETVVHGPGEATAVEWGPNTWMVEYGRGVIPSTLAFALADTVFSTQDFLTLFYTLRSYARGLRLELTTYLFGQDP
smiles,measurement,value
O=C(CCCN1CCCN(c2ccccn2)CC1)c1ccc(F)cc1,Ki,63 nM
